Test system: DNBS induced colitis in Wistar rats
Experiment: DNBS induced colitis model in Wistar rats
Format: in vivo, rat
Design: Degree of adhesion (score) / Degree of intestinal infarction (score) / Severity of ulcer (score) / Degree of intestinal wall thickening (score) / Macroscopic colon score: scale not given here
Settings: oral once a day Day 0 to Day 6, compounds 10 mg/kg, osalazine sodium 300 mg/kg; for Degree of adhesion (score) / Degree of intestinal infarction (score) / Degree of intestinal wall thickening (score) / Severity of ulcer (score): mean score per Table 4; for Ulcer length / Ulcer width: mean
From the text: The therapeutic effect of compounds prepared in some examples of the present invention on 2,4-dinitrobenzenesulfonic acid (DNBS) induced ulcerative colitis in Wistar rats (corresponding to Crohn's disease) was investigated.
• Animal species and strains: Wistar rats • Administration record: No administration history • Gender and weight: Male, about 150 g • Breeding party/supplier: Shanghai SLAC Laboratory Animal Co., Ltd • Adaptation period: 5 days • Room: Regular Area Rooms • Indoor temperature: 20-26° C. • Indoor relative humidity: 40-70% • Lighting: Fluorescent lighting, 12-hour illumination (08:00-20:00) and 12-hour no illumination • Animal feeding: 2-4 rats per cage (same administration group) • Food: Unlimited access to feed (disinfected by irradiation, Jiangsu Xietong Pharmaceutical Bio-engineering Co., Ltd., China) • Water: Unlimited access to drinking water (treated with reverse osmosis and high-pressure sterilization)
A total of 80 Wistar rats were purchased from Shanghai SLAC Laboratory Animal Co., Ltd, of which 10 were used as backup animals to select animals with suitable weight range included in the groups, in order to control the fluctuation of disease severity caused by weight fluctuations.
BioBook software was used to screen 70 animals for random grouping based on animal weight to ensure that the weight values of each group of animals were similar to reduce bias.
3.1 DNBS powder was dissolved in 30% ethanol with a final concentration of 60 mg/mL.
3.2 Induction of colorectal inflammation: Before the experiment, rats were fasted for 40 hours and subcutaneously injected with 5% glucose saline during the fasting period. On the day 0 of the experiment, fasting rats were anesthetized by intraperitoneal injection of Zoletil and 5 mg/kg Xylazine. G2 group-G7 group, a hose was extended from the anus to the left curvature of the colorectum, and colorectal inflammation in rats was induced with DNBS enema. The normal control group (G1) was treated with 30% ethanol enema using the same method.
3.3. Dosage regimen: After DNBS induction in G1 and G2 groups of animals, solvent was administered. After DNBS induction in G3 group, 300 mg/kg of oxalazine sodium was administered. After DNBS induction in G4 to G7 groups, 10 mg/kg of the compounds of the present invention were administered respectively. Please refer to Table 3 for the administration time, specific administration dosage, and administration route. Starting from day 0 of modeling, the drugs were administered continuously for 7 days, and the animals were euthanized on day 6.
3.4 Testing indicators: After the experiment, all animals were euthanized by inhaling excessive CO2 and dislocation of cervical vertebra. After the abdominal cavity was cut open, the colorectum was taken out and the length of it was immediately measured. Then the colorectum was longitudinally cut open and rinsed clean. The weight of the colorectum and the area of the ulcer were recorded and the whole was photographed. At the same time, the damage to the rat colorectum was evaluated macroscopically according to Table 4.
The health status of animals and their comprehensive response to surgery and medication were observed every day.
The experimental data was calculated as mean±standard error. Statistical analysis was performed using Graphpad Prism, SPSS, or Sigmaplot software. The specific data is presented in the form of charts. P<0.05 is considered to have statistical differences.

| Compound | Degree of adhesion (score) | Degree of intestinal infarction (score) | Degree of intestinal wall thickening (score) | Severity of ulcer (score) | Ulcer length | Ulcer width |
| --- | --- | --- | --- | --- | --- | --- |
| CNCc1ccc(NS(=O)(=O)c2ccsc2)c(-c2ccco2)c1 [IA-30] | 0.00 | 0.00 | 0.13 | 0.80 | 0.33 cm | 0.19 cm |
| CNCc1ccc(-c2nccs2)c(NS(=O)(=O)c2ccccc2)c1 [IA-51, N-(5-((methylamino)methyl)-2-(thiazol-2-yl)phenyl)benzenesulfonamide] | 0.07 | 0.00 | 0.27 | 0.60 | 0.31 cm | 0.20 cm |
| CNCc1ccc(-c2cc[nH]n2)c(NS(=O)(=O)c2ccccc2)c1 [IA-55, N-(5-((methylamino)methyl)-2-(1H-pyrazol-3-yl)phenyl)benzenesulfonamide] | 0.10 | 0.10 | 0.30 | 1.20 | 0.60 cm | 0.40 cm |
| NCc1ccc(NS(=O)(=O)c2ccsc2)c(-c2ccco2)c1 [ID-5] | 0.00 | 0.00 | 0.10 | 0.70 | 0.34 cm | 0.12 cm |

From US20240262812A1, “N-SUBSTITUTED PHENYLSULFONAMIDE COMPOUND AND USE THEREOF” (Shanghai Leado Pharmatech Co., Ltd., priority 2021, published 2024)
